Experimental data from patent US7205382B2, “Peptides, the production and use thereof for binding immunoglobulins” (Fresenius Medical Care Affina GmbH, priority 2000, dated 2007).
Bridge positions count the residues as written; N and C are the ends. Square brackets hold non-standard residues; d marks the D form. Ends that are not written are not given here. cellulose = not defined here; βAla = NCCC(=O)O

Key:
Format in all cases: binding
Design in all cases: key: No binding of immunoglobulin for the defined peptide variant, detection negative: 0; Binding of immunoglobulin for the defined peptide variant, detection positive: +
[1] = test system: serum albumin; assay: Cellulose-immobilized 13-mer peptide variants incubated with serum albumin (negative control), anti-human IgG-AP detection; settings: blocking buffer without addition, 3 h room temperature
Procedure, shortened: (§1)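 Peptides on cellulose via a (βA)(βA) spacer were blocked in T-TBS (pH 8.0) with 5% saccharose and 4% BSA, then exposed for 3 h at room temperature to IgG-Fc (1 μg/ml), serum diluted 1:10,000, or blocking buffer alone. Bound IgG was detected with AP-anti-human IgG (1.2 μg/ml) and NBT/BCIP colour development.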

[2] = test system: immunoglobulins in human plasma; assay: Cellulose-immobilized 13-mer peptide variants incubated with human plasma, anti-human IgG-AP detection; settings: human plasma as sample, diluted 1:10,000 in blocking buffer, 3 h room temperature
Procedure, shortened: as §1

[3] = test system: human IgG-Fc; assay: Cellulose-immobilized 13-mer peptide variants incubated with human IgG-Fc, anti-human IgG-AP detection; settings: IgG-Fc 1 μg/ml in blocking buffer, 3 h room temperature
Procedure, shortened: as §1

| Substance | Result for incubation with serum albumin (immunoglobulin binding detection) [1] | Result for incubation with human plasma (immunoglobulin binding detection) [2] | Result for incubation with human IgG-Fc (immunoglobulin binding detection) [3] |
| --- | --- | --- | --- |
| 04V: cellulose-bound 13-mer variant DCAVHLGELVWCT-(βA)(βA) (disulfide 2-12 (inferred); not fully specified (N-terminus, C-terminus); printed as DCAVHLGELVWCT-(βA)(βA); also: cellulose-bound) | 0 | + | + |
| 01W: cellulose-bound 13-mer variant WCAWHLGELVWCT-(βA)(βA) (WCAWHLGELVWCT-{βAla-βAla-cellulose}; disulfide 2-12 (inferred); reading uncertain; also: printed as WCAWHLGELVWCT-(βA)(βA)) | 0 | 0 | 0 |
| 08H: cellulose-bound 13-mer variant DCAWHLGHLVWCT-(βA)(βA) (DCAWHLGHLVWCT-{βAla-βAla-cellulose}; disulfide 2-12 (inferred); not fully specified (N-terminus); printed as DCAWHLGHLVWCT-(βA)(βA); reading uncertain) | 0 | + | + |
| 05R: cellulose-bound 13-mer variant DCAWRLGELVWCT-(βA)(βA) (disulfide 2-12 (inferred); not fully specified (N-terminus, C-terminus); printed as DCAWRLGELVWCT-(βA)(βA); also: cellulose-bound) | 0 | 0 | 0 |
| 10Q: cellulose-bound 13-mer variant DCAWHLGELQWCT-(βA)(βA) (DCAWHLGELQWCT-{βAla-βAla-cellulose}; disulfide 2-12 (inferred); reading uncertain; also: printed as DCAWHLGELQWCT-(βA)(βA)) | 0 | 0 | 0 |
| 11E: cellulose-bound 13-mer variant DCAWHLGELVECT-(βA)(βA) (DCAWHLGELVECT-{βAla-βAla-cellulose}; disulfide 2-12 (inferred); reading uncertain; also: printed as DCAWHLGELVECT-(βA)(βA)) | 0 | 0 | 0 |
| 11H: cellulose-bound 13-mer variant DCAWHLGELVHCT-(βA)(βA) | 0 | 0 | + |
| 07D: cellulose-bound 13-mer variant DCAWHLDELVWCT-(βA)(βA) (DCAWHLDELVWCT-{βAla-βAla-cellulose}; disulfide 2-12 (inferred); not fully specified (N-terminus); printed as DCAWHLDELVWCT-(βA)(βA); reading uncertain) | 0 | + | + |
| 02E: cellulose-bound 13-mer variant DEAWHLGELVWCT-(βA)(βA) (DEAWHLGELVWCT[βAla][βAla]; not fully specified; printed as DEAWHLGELVWCT-(βA)(βA); also: cellulose-bound) | 0 | 0 | 0 |

Second part, the substance after the results:

| Result for incubation with serum albumin (immunoglobulin binding detection) [1] | Result for incubation with human plasma (immunoglobulin binding detection) [2] | Result for incubation with human IgG-Fc (immunoglobulin binding detection) [3] | Substance |
| --- | --- | --- | --- |
| 0 | 0 | 0 | 09D: cellulose-bound 13-mer variant DCAWHLGEDVWCT-(βA)(βA) (DCAWHLGEDVWCT-{βAla-βAla-cellulose}; disulfide 2-12 (inferred); reading uncertain; also: printed as DCAWHLGEDVWCT-(βA)(βA)) |
| 0 | 0 | 0 | 08Y: cellulose-bound 13-mer variant DCAWHLGYLVWCT-(βA)(βA) (DCAWHLGYLVWCT-{βAla-βAla-cellulose}; disulfide 2-12 (inferred); reading uncertain; also: printed as DCAWHLGYLVWCT-(βA)(βA)) |
| 0 | 0 | 0 | 07A: cellulose-bound 13-mer variant DCAWHLAELVWCT-(βA)(βA) (DCAWHLAELVWCT-{βAla-βAla-cellulose}; disulfide 2-12 (inferred); not fully specified (N-terminus); printed as DCAWHLAELVWCT-(βA)(βA); reading uncertain) |
| 0 | 0 | + | 03K: cellulose-bound 13-mer variant DCKWHLGELVWCT-(βA)(βA) (DCKWHLGELVWCT-{βAla-βAla-cellulose}; disulfide 2-12 (inferred); reading uncertain; also: printed as DCKWHLGELVWCT-(βA)(βA)) |
| 0 | 0 | 0 | 07R: cellulose-bound 13-mer variant DCAWHLRELVWCT-(βA)(βA) (DCAWHLRELVWCT-{βAla-βAla-cellulose}; disulfide 2-12 (inferred); not fully specified (N-terminus); printed as DCAWHLRELVWCT-(βA)(βA); reading uncertain) |
| 0 | 0 | 0 | 10N: cellulose-bound 13-mer variant DCAWHLGELNWCT-(βA)(βA) (DCAWHLGELNWCT-{βAla-βAla-cellulose}; disulfide 2-12 (inferred); reading uncertain; also: printed as DCAWHLGELNWCT-(βA)(βA)) |
| 0 | 0 | 0 | 01C: cellulose-bound 13-mer variant CCAWHLGELVWCT-(βA)(βA) (CCAWHLGELVWCT[βAla][βAla]; cysteine pairing not given here; also: bound to cellulose support) |
| 0 | 0 | 0 | 05T: cellulose-bound 13-mer variant DCAWTLGELVWCT-(βA)(βA) (disulfide 2-12 (inferred); not fully specified (N-terminus, C-terminus); printed as DCAWTLGELVWCT-(βA)(βA); also: cellulose-bound) |
